In US20100197650A1, “COMPOSITIONS AND METHODS OF TREATMENT COMPRISING CEFTAROLINE” (FOREST LABORATORIES HOLDINGS LTD., priority 2008, published 2010):
In brackets after ≈: the same amount, converted by molar mass. Where two headings read alike, the source gives them in different places.

Experiments:
[1] = system: ESBL-producing Klebsiella pneumoniae; assay: Susceptibility testing MIC/MBC, broth microdilution (Example 2); format: cell-based; details: for MBC / MIC: Klebsiella pneumoniae; for MBC: read-out: MBC; for MIC: read-out: MIC
HA-MRSA = assay: Time-kill curves at ¼ and ½ MIC (Example 3); format: cell-based, Staphylococcus aureus; details: drug alone at ½ MIC, the 2 vancomycin-susceptible MRSA, followed by regrowth
Procedure: Four strains, including 1 hVISA and 1 VISA, characterized by population analysis profile and Macro Etest were selected for time-kill analysis.
Trypose soy agar (TSA; Difco, Detroit, Mich.) was used for colony counting.
Four randomly selected HA-MRSA isolates were evaluated in time-kill experiments, using a starting inoculum at ˜10^6 CFU/mL and antimicrobials at ¼ and ½ MIC. Regimens included ceftaroline, vancomycin and tobramycin alone or combination of tobramycin with ceftaroline or vancomycin. […] Additivity, antagonism and indifference were defined as <2 but >1 log10 kill, >1 log10 growth and ±1 log kill, respectively.
Differences between regimens were analyzed by T-test or ANOVA with Tukey's post hoc test. […] A P value <0.05 was considered significant.

[2] = system: AmpC-derepressed Enterobacter cloacae; assay: microbe, parasite or virus in culture; format: cell-based; details: for MBC / MIC: Enterobacter cloacae
P. aeruginosa = assay: Susceptibility testing MIC/MBC, broth microdilution (Example 2); format: cell-based, Pseudomonas aeruginosa; details: for MBC / MIC: Pseudomonas aeruginosa; for MBC: read-out: MBC; for MIC: read-out: MIC
ESBL-producing E. coli = assay: as above; format: cell-based, Escherichia coli; details: for MBC / MIC: Escherichia coli
Staphylococcus aureus = assay: MIC, broth microdilution (Example 1); format: cell-based
Summary of the method: (§1)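 CLSI broth microdilution with seven 2-fold dilutions per agent made in DMSO, the drug making up 5% of final well volume. H. influenzae was tested in Haemophilus Test Medium, S. pneumoniae in Mueller Hinton II broth with 2% lysed horse blood, and the others in Mueller Hinton II broth. Incubation was 35 °C for about 20 h, with visual reading.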

Escherichia coli = assay: MIC, broth microdilution (Example 1); format: cell-based; details: Escherichia coli, read-out: MIC
Summary of the method: as §1

Streptococcus pyogenes = assay: MIC, broth microdilution (Example 1); format: cell-based; details: Streptococcus pyogenes, read-out: MIC
Summary of the method: as §1

[3] = K. pneumonia (10) clinical isolates
[4] = E. cloacae (10) clinical isolates
[5] = P. aeruginosa (20) clinical isolates

Question: How did the MBC range [1, 3] turn out when CCO/N=C(\C(=O)N[C@@H]1C(=O)N2C(C(=O)[O-])=C(Sc3nc(-c4cc[n+](C)cc4)cs3)CS[C@H]12)c1nsc(N)n1 [Ceftaroline] was run?
Answer: 32 to 1024 µg/mL

Question: And the MIC range [1, 3]?
Answer: 8 to 1024 µg/mL

Question: What about the MBC ([1]; K. pneumonia isolate no. 5427) of the same compound?
Answer: 16 µg/mL (≈ 26.5 µM)

Question: And the MIC ([1]; K. pneumonia isolate no. 5427)?
Answer: 4 µg/mL (≈ 6.61 µM)

Question: What about the MBC ([1]; K. pneumonia isolate no. 5436) of the same compound?
Answer: 1020 µg/mL (≈ 1690 µM)

Question: What about the MIC ([1]; K. pneumonia isolate no. 5436) of the same compound?
Answer: 1020 µg/mL (≈ 1690 µM)

Question: What about the “kill at 4 hours” value (HA-MRSA) of the same compound?
Answer: 1.5 log10

Question: And the MBC range [2, 4]?
Answer: 0.125 to 1024 µg/mL

Question: And the MIC range [2, 4]?
Answer: 0.125 to 512 µg/mL

Question: What about the MBC ([2]; E. cloacae isolate no. 4073) of the same compound?
Answer: 512 µg/mL (≈ 847 µM)

Question: And the MIC ([2]; E. cloacae isolate no. 4073)?
Answer: 256 µg/mL (≈ 423 µM)

Question: And the MBC ([2]; E. cloacae isolate no. 5420)?
Answer: 128 µg/mL (≈ 212 µM)

Question: And the MIC ([2]; E. cloacae isolate no. 5420)?
Answer: 64 µg/mL (≈ 106 µM)

Question: And the MBC range (P. aeruginosa; [5])?
Answer: 16 to 256 µg/mL

Question: What about the MIC range (P. aeruginosa; [5]) of the same compound?
Answer: 8 to 256 µg/mL

Question: What about the MBC (P. aeruginosa; P. aeruginosa isolate no. 796) of the same compound?
Answer: 32 µg/mL (≈ 52.9 µM)

Question: And the MIC (P. aeruginosa; P. aeruginosa isolate no. 796)?
Answer: 16 µg/mL (≈ 26.5 µM)

Question: And the MBC (P. aeruginosa; P. aeruginosa isolate no. 956)?
Answer: 256 µg/mL (≈ 423 µM)

Question: What about the MIC (P. aeruginosa; P. aeruginosa isolate no. 956) of the same compound?
Answer: 128 µg/mL (≈ 212 µM)

Question: What about the MBC (P. aeruginosa; P. aeruginosa isolate no. 1019) of the same compound?
Answer: 64 µg/mL (≈ 106 µM)

Question: And the MIC (P. aeruginosa; P. aeruginosa isolate no. 1019)?
Answer: 32 µg/mL (≈ 52.9 µM)

Question: What about the MBC (P. aeruginosa; P. aeruginosa isolate no. 1037) of the same compound?
Answer: 16 µg/mL (≈ 26.5 µM)

Question: And the MIC (P. aeruginosa; P. aeruginosa isolate no. 1037)?
Answer: 8 µg/mL (≈ 13.2 µM)

Question: What about the MBC range (ESBL-producing E. coli; E. coli (10) clinical isolates) of the same compound?
Answer: 4 to 1024 µg/mL

Question: And the MIC range (ESBL-producing E. coli; E. coli (10) clinical isolates)?
Answer: 2 to 512 µg/mL

Question: And the MBC (ESBL-producing E. coli; E. coli isolate no. 5401, read-out: MBC)?
Answer: 8 µg/mL (≈ 13.2 µM)

Question: And the MIC (ESBL-producing E. coli; E. coli isolate no. 5401, read-out: MIC)?
Answer: 4 µg/mL (≈ 6.61 µM)

Question: What about the MBC (ESBL-producing E. coli; E. coli isolate no. 5411) of the same compound?
Answer: 128 µg/mL (≈ 212 µM)

Question: And the MIC (ESBL-producing E. coli; E. coli isolate no. 5411)?
Answer: 64 µg/mL (≈ 106 µM)

Question: What about the MIC (Staphylococcus aureus; S. aureus 0765 (MRSA)) of the same compound?
Answer: 2 µg/mL

Question: And the MIC (Staphylococcus aureus; Staphylococcus aureus, MRSA, S. aureus 0765 (MRSA), read-out: MIC)?
Answer: 1 µg/mL

Question: What about the MIC (Staphylococcus aureus; Staphylococcus aureus, MRSA, S. aureus 2053 (MRSA), read-out: MIC) of the same compound?
Answer: 2 µg/mL

Question: What about the MIC (Staphylococcus aureus; Staphylococcus aureus, MRSA, S. aureus 2202 (CA-MRSA), read-out: MIC) of the same compound?
Answer: 1 µg/mL

Question: And the MIC (Staphylococcus aureus; Staphylococcus aureus, MRSA, S. aureus 2296 (CA-MRSA), read-out: MIC)?
Answer: 1 µg/mL

Question: What about the MIC (Staphylococcus aureus; Staphylococcus aureus, MSSA, S. aureus 0753 (MSSA), read-out: MIC) of the same compound?
Answer: 0.5 µg/mL

Question: And the MIC (Staphylococcus aureus; Staphylococcus aureus, MSSA, S. aureus 2063 (MSSA), read-out: MIC)?
Answer: 0.5 µg/mL

Question: And the MIC (Escherichia coli; E. coli 1587)?
Answer: 0.12 µg/mL

Question: What about the MIC (Escherichia coli; E. coli 2273 (ESBL)) of the same compound?
Answer: 2 µg/mL

Question: What about the MIC (Streptococcus pyogenes; S. pyogenes 0717) of the same compound?
Answer: 0.008 µg/mL

Question: What about the MIC (Streptococcus pyogenes; S. pyogenes 0722) of the same compound?
Answer: 0.008 µg/mL
